Data as given in US6358885B1, “Substituted phenylheterocyclic herbicides” (Mississippi State University, priority 1992, dated 2002).

How the values were obtained:
wheat [1] = experiment: Test B preemergence/postemergence greenhouse plant response rating 0 to 10; format: in vivo, Triticum aestivum; settings: 0 to 10 scale
In short: (§1)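 Planted seeds are treated preemergence with compound dissolved in a non-phytotoxic solvent, while postemergence applications go onto plants of two to eighteen cm. Plants stay in the greenhouse twelve to sixteen days and are then rated visually relative to controls.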

downy brome = experiment: Test C preemergence/postemergence greenhouse plant response rating 0 to 100; format: in vivo, Bromus tectorum; settings: POSTEMERGENCE; for Plant response rating Downy Brome: 0 to 100 scale
In short: (§2)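 Compounds in non-phytotoxic solvent went onto sandy loam before emergence (seeded one day earlier) or onto plants at the one-to-four leaf stage. Duck salad was treated via flood water (~2.5 cm, maintained) over silt loam.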

wheat [2] = experiment: as above; format: in vivo, Triticum aestivum; settings: POSTEMERGENCE; for Plant response rating, Wheat: 0 to 100 scale
In short: as §2

sorghum [3] = experiment: Test B preemergence/postemergence greenhouse plant response rating 0 to 10; format: in vivo, Sorghum bicolor; settings: 0 to 10 scale
In short: as §1

barley = experiment: as above; format: in vivo, Hordeum vulgare; settings: 0 to 10 scale
In short: as §1

wild oat [4] = experiment: Test C preemergence/postemergence greenhouse plant response rating 0 to 100; format: in vivo, Avena fatua; settings: POSTEMERGENCE; for Plant response rating, Wild oat: 0 to 100 scale
In short: as §2

sugar beet = experiment: Test B preemergence/postemergence greenhouse plant response rating 0 to 10; format: in vivo, Beta vulgaris; settings: 0 to 10 scale
In short: as §1

blackgrass = experiment: as above; format: in vivo, Alopecurus myosuroides; settings: 0 to 10 scale
In short: as §1

sorghum [5] = experiment: Test C preemergence/postemergence greenhouse plant response rating 0 to 100; format: in vivo, Sorghum bicolor; settings: POSTEMERGENCE; for Plant response rating, Sorghum: 0 to 100 scale
In short: as §2

crabgrass = experiment: as above; format: in vivo, Digitaria sanguinalis; settings: POSTEMERGENCE; for Plant response rating, Crabgrass: 0 to 100 scale
In short: as §2

lambsquarters = experiment: Test B preemergence/postemergence greenhouse plant response rating 0 to 10; format: in vivo, Chenopodium album; settings: 0 to 10 scale
In short: as §1

wild buckwheat = experiment: Test C preemergence/postemergence greenhouse plant response rating 0 to 100; format: in vivo, Polygonum convolvulus; settings: POSTEMERGENCE; for Plant response rating, Wild buckwheat: 0 to 100 scale
In short: as §2

ryegrass = experiment: as above; format: in vivo, Lolium multiflorum; settings: POSTEMERGENCE; for Plant response rating Ryegrass: 0 to 100 scale
In short: as §2

bedstraw = experiment: Test B preemergence/postemergence greenhouse plant response rating 0 to 10; format: in vivo, Galium aparine; settings: 0 to 10 scale
In short: as §1

rape = experiment: Test C preemergence/postemergence greenhouse plant response rating 0 to 100; format: in vivo, Brassica napus; settings: POSTEMERGENCE; for Plant response rating, Rape: 0 to 100 scale
In short: as §2

cotton = experiment: Test B preemergence/postemergence greenhouse plant response rating 0 to 10; format: in vivo, Gossypium hirsutum; settings: 0 to 10 scale
In short: as §1

barnyardgrass = experiment: Test C flood test plant response rating 0 to 100; format: in vivo, Echinochloa crus-galli; settings: for Plant response rating, Barnyardgrass: flood test species listed under POSTEMERGENCE, 0 to 100 scale
In short: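 Compounds in non-phytotoxic solvent applied preemergence to sandy loam one day after planting, postemergence at the 1–4 leaf stage, or to ~2.5 cm floodwater over silt loam.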

wild oat [6] = experiment: Test B preemergence/postemergence greenhouse plant response rating 0 to 10; format: in vivo, Avena fatua; settings: 0 to 10 scale
In short: as §1

C#CC(C)N1C(=O)COc2cc(F)c(-c3nn4c(c3Cl)CCCC4)cc21 (stereo not drawn) [Compound 50]
Plant response rating, Wheat (wheat [1]; POSTEMERGENCE, Rate 10 g/ha): 4
Plant response rating, Wheat (wheat [1]; POSTEMERGENCE, Rate 50 g/ha): 4
Plant response rating, Wheat (wheat [1]; PREEMERGENCE, Rate 50 g/ha): 0
Plant response rating Downy Brome (downy brome; 62 g/ha): 50
Plant response rating Downy Brome (downy brome; 250 g/ha): 60
Plant response rating (0 to 100), Downy Brome (downy brome; Rate 1 g/ha): 0
Plant response rating (0 to 100), Downy Brome (downy brome; Rate 4 g/ha): 30
Plant response rating (0 to 100), Downy Brome (downy brome; Rate 16 g/ha): 40
Plant response rating, Wheat (wheat [2]; 62 g/ha): 50
Plant response rating, Wheat (wheat [2]; 250 g/ha): 60
Plant response rating (0 to 100), Wheat (wheat [2]; Rate 1 g/ha): 0
Plant response rating (0 to 100), Wheat (wheat [2]; Rate 4 g/ha): 20
Plant response rating (0 to 100), Wheat (wheat [2]; Rate 16 g/ha): 30
Plant response rating, Sorghum (sorghum [3]; POSTEMERGENCE, Rate 10 g/ha): 4
Plant response rating, Sorghum (sorghum [3]; POSTEMERGENCE, Rate 50 g/ha): 3
Plant response rating, Sorghum (sorghum [3]; PREEMERGENCE, Rate 50 g/ha): 0
Plant response rating, Barley (barley; POSTEMERGENCE, Rate 10 g/ha): 3
Plant response rating, Barley (barley; POSTEMERGENCE, Rate 50 g/ha): 4
Plant response rating, Barley (barley; PREEMERGENCE, Rate 10 g/ha): 0
Plant response rating, Barley (barley; PREEMERGENCE, Rate 50 g/ha): 0
Plant response rating, Wild oat (wild oat [4]; 62 g/ha): 30
Plant response rating, Wild oat (wild oat [4]; 250 g/ha): 50
Plant response rating (0 to 100), Wild oat (wild oat [4]; Rate 1 g/ha): 10
Plant response rating (0 to 100), Wild oat (wild oat [4]; Rate 4 g/ha): 20
Plant response rating (0 to 100), Wild oat (wild oat [4]; Rate 16 g/ha): 20
Plant response rating, Sugar beet (sugar beet; POSTEMERGENCE, Rate 10 g/ha): 10
Plant response rating, Sugar beet (sugar beet; POSTEMERGENCE, Rate 50 g/ha): 10
Plant response rating, Sugar beet (sugar beet; PREEMERGENCE, Rate 50 g/ha): 10
Plant response rating, Blackgrass (blackgrass; POSTEMERGENCE, Rate 10 g/ha): 6
Plant response rating, Blackgrass (blackgrass; POSTEMERGENCE, Rate 50 g/ha): 6
Plant response rating, Blackgrass (blackgrass; PREEMERGENCE, Rate 10 g/ha): 4
Plant response rating, Blackgrass (blackgrass; PREEMERGENCE, Rate 50 g/ha): 6
Plant response rating, Sorghum (sorghum [5]; 62 g/ha): 50
Plant response rating, Sorghum (sorghum [5]; 250 g/ha): 50
Plant response rating (0 to 100), Sorghum (sorghum [5]; Rate 1 g/ha): 30
Plant response rating (0 to 100), Sorghum (sorghum [5]; Rate 4 g/ha): 50
Plant response rating (0 to 100), Sorghum (sorghum [5]; Rate 16 g/ha): 50
Plant response rating, Crabgrass (crabgrass; 62 g/ha): 40
Plant response rating, Crabgrass (crabgrass; 250 g/ha): 50
Plant response rating (0 to 100), Crabgrass (crabgrass; Rate 1 g/ha): 10
Plant response rating (0 to 100), Crabgrass (crabgrass; Rate 4 g/ha): 20
Plant response rating (0 to 100), Crabgrass (crabgrass; Rate 16 g/ha): 20
Plant response rating, Lambsquarter (lambsquarters; POSTEMERGENCE, Rate 10 g/ha): 9
Plant response rating, Lambsquarter (lambsquarters; POSTEMERGENCE, Rate 50 g/ha): 10
Plant response rating, Lambsquarter (lambsquarters; PREEMERGENCE, Rate 50 g/ha): 10
Plant response rating, Wild buckwheat (wild buckwheat; 62 g/ha): 100
Plant response rating, Wild buckwheat (wild buckwheat; 250 g/ha): 100
Plant response rating (0 to 100), Wild buckwheat (wild buckwheat; Rate 1 g/ha): 0
Plant response rating (0 to 100), Wild buckwheat (wild buckwheat; Rate 4 g/ha): 20
Plant response rating (0 to 100), Wild buckwheat (wild buckwheat; Rate 16 g/ha): 80
Plant response rating Ryegrass (ryegrass; 62 g/ha): 40
Plant response rating Ryegrass (ryegrass; 250 g/ha): 50
Plant response rating (0 to 100), Ryegrass (ryegrass; Rate 1 g/ha): 0
Plant response rating (0 to 100), Ryegrass (ryegrass; Rate 4 g/ha): 20
Plant response rating (0 to 100), Ryegrass (ryegrass; Rate 16 g/ha): 30
Plant response rating, Bedstraw (bedstraw; POSTEMERGENCE, Rate 10 g/ha): 10
Plant response rating, Bedstraw (bedstraw; POSTEMERGENCE, Rate 50 g/ha): 10
Plant response rating, Bedstraw (bedstraw; PREEMERGENCE, Rate 10 g/ha): 3
Plant response rating, Bedstraw (bedstraw; PREEMERGENCE, Rate 50 g/ha): 10
Plant response rating, Rape (rape; 62 g/ha): 100
Plant response rating, Rape (rape; 250 g/ha): 100
Plant response rating (0 to 100), Rape (rape; Rate 1 g/ha): 0
Plant response rating (0 to 100), Rape (rape; Rate 4 g/ha): 0
Plant response rating (0 to 100), Rape (rape; Rate 16 g/ha): 50
Plant response rating, Cotton (cotton; POSTEMERGENCE, Rate 10 g/ha): 9
Plant response rating, Cotton (cotton; POSTEMERGENCE, Rate 50 g/ha): 10
Plant response rating, Cotton (cotton; PREEMERGENCE, Rate 10 g/ha): 0
Plant response rating, Cotton (cotton; PREEMERGENCE, Rate 50 g/ha): 0
Plant response rating (0 to 100), Barnyardgrass (barnyardgrass; POSTEMERGENCE section, flood test, Rate 4 g/ha): 60
Plant response rating (0 to 100), Barnyardgrass (barnyardgrass; Rate 16 g/ha, under POSTEMERGENCE head (flood test species)): 70
Plant response rating, Barnyardgrass (barnyardgrass; 62 g/ha): 95
Plant response rating, Barnyardgrass (barnyardgrass; 250 g/ha): 100
Plant response rating, Wild oat (wild oat [6]; POSTEMERGENCE, Rate 10 g/ha): 3
Plant response rating, Wild oat (wild oat [6]; POSTEMERGENCE, Rate 50 g/ha): 4
Plant response rating, Wild oat (wild oat [6]; PREEMERGENCE, Rate 50 g/ha): 3
